Experimental data reported in patent publication US20240124443A1, “PLASMIN INHIBITOR, PREPARATION METHOD THEREFOR, AND APPLICATION THEREOF” (SCINNOHUB PHARMACEUTICAL CO., LTD, priority 2021, published 2024).
Counter-ions that a name gives are not always drawn.

tested on: fibrinolysis; test: not given; details: cited from earlier work

| SMILES | anti-fibrinolytic activity relative to EACA |
| --- | --- |
| NC[C@H]1CC[C@H](C(=O)O)CC1 [tranexamic acid, trans-4-aminomethyl-cyclohexane-carboxylic acid] | about 10 times |

tested on: degradation of plasma clots; test: Plasma clot lysis assay; assay type: biochemical, human; details: not given
Description: To determine the inhibitory effect of the compounds of the invention on the degradation of plasma clots.
3.1 Collect fresh healthy human blood, mix 1 part of anticoagulant (0.109 M trisodium citrate) with 9 parts of blood, centrifuge at 2000×g for 20 min at room temperature, collect the supernatant (plasma), sub-package and store at −80° C. for later use.
3.2 On the day of experiment, the plasma was thawed in a water bath at 37° C., and all reagents except tPA were pre-warmed at 37° C.
3.3 Add 12.5 μL of 80 mM CaCl2 (HEPES buffer, pH 7.4) to a 96-well plate, and then add 25 μL of different concentrations of test compound diluted with normal saline, add an equal volume of normal saline to the negative control well.
3.4 Mix 50 μL of pre-warmed plasma with 12.5 μL of 4 nM tPA (HEPES buffer, pH 7.4), immediately add to a 96-well plate, measure the absorbance at 405 nm every 2 minutes, continuously for 15 hours.
The time corresponding to the median of the absorption value in the descending section—the time corresponding to the median of the absorption value in the ascending section is the plasma clot degradation time (Clot lysis time). Taking the plasma clot lysis time of the negative control well as a reference, calculate the relative value of the plasma clot lysis time in the wells treated with different concentrations of the compound and the plasma clot lysis time of the negative control well to obtain the inhibition rate:
Inhibition rate%=(1−Clot lysis time of negative control well/Clot lysis time of compound treated well)×100%
Taking the log value of the compound concentration as the X-axis, and the percentage inhibition rate as the Y-axis, and dose-response curves were fitted with the software GraphPad Prism 5 by using log (inhibitor) vs. Response-Variable slope to derive IC50 values of compounds inhibiting the degradation of plasma clots.
Formula: Y=min+(max−min)/(1+10^((LogIC50−X)×Hillslope).

| SMILES | IC50 ratio (IC50 Examples/IC50 Tranexamic acid) |
| --- | --- |
| Cl.O=C(O)c1ccc2c(n1)CC(C(O)CCCO)NC2 (stereo not shown) [Example 13, 7-(1,4-dihydroxybutyl)-5,6,7,8-tetrahydro-1,6-naphthyridine-2-carboxylic acid hydrochloride] | 1.63 |

same assay, conditions: human plasma, tPA, inhibition of plasma clot degradation in vitro relative to tranexamic acid

| SMILES | IC50 ratio (IC50 Examples/IC50 Tranexamic acid) |
| --- | --- |
| Cl.O=C(O)c1ccc2c(n1)C(O)CNC2 (stereo not shown) [Example 2, 8-hydroxy-5,6,7,8-tetrahydro-1,6-naphthyridine-2-carboxylic acid hydrochloride] | 1.24 |
| NC1CNCc2ccc(C(=O)O)nc21 (stereo not shown) [Example 3, 8-amino-5,6,7,8-tetrahydro-1,6-naphthyridine-2-carboxylic acid dihydrochloride] | 2.89 |
| Cl.O=C(O)c1ccc2c(n1)C(N1CCOCC1)CNC2 (stereo not shown) [Example 5, 8-morpholino-5,6,7,8-tetrahydro-1,6-naphthyridine-2-carboxylic acid hydrochloride] | 0.29 |
| Cl.O=C(O)c1ccc2c(n1)C(N1CCS(=O)(=O)CC1)CNC2 (stereo not shown) [Example 6, 8-(1,1-dioxido-thiomorpholino)-5,6,7,8-tetrahydro-1,6-naphthyridine-2-carboxylic acid hydrochloride] | 0.31 |
| Cl.O=C(O)c1ccc2c(n1)CC(COCCCO)NC2 (stereo not shown) [Example 7, 7-((3-hydroxypropoxy)methyl)-5,6,7,8-tetrahydro-1,6-naphthyridine-2-carboxylic acid hydrochloride] | 0.25 |
| Cl.O=C(O)c1ccc2c(n1)CC(C1(O)CC1)NC2 (stereo not shown) [Example 9, 7-(1-hydroxycyclopropyl)-5,6,7,8-tetrahydro-1,6-naphthyridine-2-carboxylic acid hydrochloride] | 0.44 |
| Cl.O=C(O)c1ccc2c(n1)CC(CCCCO)NC2 (stereo not shown) [Example 10, 7-(4-hydroxybutyl)-5,6,7,8-tetrahydro-1,6-naphthyridine-2-carboxylic acid hydrochloride] | 0.18 |
| O=C(O)c1ccc2c(n1)CC(CNCCCO)NC2 (stereo not shown) [Example 11, 7-(((3-hydroxypropyl)amino)methyl)-5,6,7,8-tetrahydro-1,6-naphthyridine-2-carboxylic acid dihydrochloride] | 2.58 |
| Cl.O=C(O)c1ccc2c(n1)CC(C(O)c1ccccc1)NC2 (stereo not shown) [Example 12, 7-(hydroxy(phenyl)methyl)-5,6,7,8-tetrahydro-1,6-naphthyridine-2-carboxylic acid hydrochloride] | 0.88 |
| Cl.O=C(O)c1ccc2c(n1)C(N1CCOC(Cc3ccccc3)C1)CNC2 (stereo not shown) [Example 15, 8-(2-benzylmorpholino)-5,6,7,8-tetrahydro-1,6-naphthyridine-2-carboxylic acid hydrochloride] | 0.57 |
| Cl.O=C(O)c1ccc2c(n1)CC(C(=O)O)NC2 (stereo not shown) [Example 16, 5,6,7,8-tetrahydro-1,6-naphthyridine-2,7-dicarboxylic acid hydrochloride] | 0.54 |
| Cl.O=C(O)c1nc2c(cc1F)CNCC2 [Example 17, 3-fluoro-5,6,7,8-tetrahydro-1,6-naphthyridine-2-carboxylic acid hydrochloride] | 0.34 |
| Cl.O=C(O)c1ccc2c(n1)C(OCCO)CNC2 (stereo not shown) [Example 18] | 0.66 |
| Cl.O=C(O)c1ccc2c(n1)C(N1CCCCC1)CNC2 (stereo not shown) [Example 19] | 5.75 |
| Cl.O=C(O)c1ccc2c(n1)C(N1CCSCC1)CNC2 (stereo not shown) [Example 20] | 0.50 |
| Cl.O=C(O)c1ccc2c(n1)C(N1CC[S+]([O-])CC1)CNC2 (stereo not shown) [Example 21] | 0.14 |
| Cl.O=C(O)c1ccc2c(n1)C(N1CCNCC1)CNC2 (stereo not shown) [Example 22] | 0.67 |
| Cl.O=C(O)c1ccc2c(n1)CC(CO)NC2 (stereo not shown) [Example 23] | 0.17 |
| CC(C)(O)C1Cc2nc(C(=O)O)ccc2CN1.Cl (stereo not shown) [Example 24] | 1.67 |
| Cl.O=C(O)c1ccc2c(n1)CC(CO)(CO)NC2 [Example 25] | 6.36 |
| CC(C)CC1Cc2nc(C(=O)O)ccc2CN1.Cl (stereo not shown) [Example 26] | 0.22 |
| Cl.O=C(O)c1ccc2c(n1)CC(Cc1ccccc1)NC2 (stereo not shown) [Example 27] | 0.67 |

| SMILES | IC50 ratio (IC50 Examples/IC50 Tranexamic acid) |
| --- | --- |
| Cl.O=C(O)c1ccc2c(n1)CC(CCCCCO)NC2 (stereo not shown) [Example 28] | 0.27 |
| Cl.O=C(O)c1ccc2c(n1)CC(C(=O)NCCO)NC2 (stereo not shown) [Example 29] | 2.26 |
| Cl.O=C(O)c1ccc2c(n1)CC(C(=O)OCCCO)NC2 (stereo not shown) [Example 30] | 0.32 |
| O=C(O)c1ccc2c(n1)CC(CNCCO)NC2 (stereo not shown) [Example 31] | 1.87 |
| Cl.O=C(O)c1ccc2c(n1)CC(COCCO)NC2 (stereo not shown) [Example 32] | 0.61 |
| CC(C)C(O)C1Cc2nc(C(=O)O)ccc2CN1.Cl (stereo not shown) [Example 33] | 0.53 |
| Cl.O=C(O)c1ccc2c(n1)CC(CCCc1ccccc1)NC2 (stereo not shown) [Example 34] | 0.11 |
| Cl.O=C(O)c1ccc2c(n1)CC(CCc1ccccc1)NC2 (stereo not shown) [Example 35] | 0.12 |
| CC(C)(C)CC1Cc2nc(C(=O)O)ccc2CN1.Cl (stereo not shown) [Example 36] | 0.13 |
| CC(C)C1Cc2nc(C(=O)O)ccc2CN1.Cl (stereo not shown) [Example 37] | 0.18 |
| CC(C)CCC1Cc2nc(C(=O)O)ccc2CN1.Cl (stereo not shown) [Example 38] | 0.13 |
| CCCC1Cc2nc(C(=O)O)ccc2CN1.Cl (stereo not shown) [Example 39] | 0.17 |
| CC(C)(C)CCC1Cc2nc(C(=O)O)ccc2CN1.Cl (stereo not shown) [Example 40] | 0.18 |
| Cl.O=C(O)c1ccc2c(n1)CC(CC1CCCCC1)NC2 (stereo not shown) [Example 41] | 0.12 |
| COc1ccc(CCC2Cc3nc(C(=O)O)ccc3CN2)cc1.Cl (stereo not shown) [Example 42] | 0.17 |
| Cl.O=C(O)c1ccc2c(n1)CC(CCC1CCCCC1)NC2 (stereo not shown) [Example 43] | 0.11 |
| Cl.O=C(O)c1ccc2c(n1)CC1(CCOCC1)NC2 [Example 44] | 0.23 |
| CCC1(CC)Cc2nc(C(=O)O)ccc2CN1.Cl [Example 45, 7,7-diethyl-5,6,7,8-tetrahydro-1,6-naphthyridine-2-carboxylic acid hydrochloride] | 0.57 |
| Cl.O=C(O)c1ccc2c(n1)CC1(CCCC1)NC2 [Example 46] | 0.33 |
| Cl.O=C(O)c1ccc2c(n1)CC1(CCCCC1)NC2 [Example 47] | 0.40 |
| CC(C)CC1(CC(C)C)Cc2nc(C(=O)O)ccc2CN1.Cl [Example 48] | 0.42 |
| Cl.O=C(O)c1ccc2c(n1)CC1(CCC1)NC2 [Example 49] | 0.28 |

tested on: not listed separately; test: Monkey PK experiment (plasma concentration by LC-MS/MS); assay type: in vivo; details: male cynomolgus monkey, 1 mg/kg intravenous injection, single dose, fasted
Description: Male Cynomolgus monkey, normal grade, 3 monkeys each group (N=3)
The compound is weighed and dissolved in normal saline to prepare a 0.5 mg/mL clear solution for intravenous administration.
On the day of the experiment, the animals were administered according to the scheme in the table below. At each time point after administration, approximately 1 mL of blood was collected from the forearm vein and placed in heparin sodium anticoagulation tubes. Blood samples were placed on ice after collection, and the plasma was separated by centrifugation within 1 hour (centrifugation conditions: 2200 g, 10 minutes, 2-8° C.). The plasma samples were stored in a refrigerator at −80° C. until analysis.
The compound concentration in cynomolgus monkey plasma was determined by the following method: • Instruments and equipment: LC-MS/MS-19 (TQ5500, AB SCIEX, USA). • Internal standard: warfarin. • Chromatographic column: ACQUITY UPLC BEH C18, model 1.7 um 2.1*50 mm, purchased from Shenzhen Novah Chemical Technology Co., Ltd.; • Flow rate: 0.60 ml/min. • Column temperature: 40° C. • Mobile phase A: 0.1% formic acid in water. • Mobile phase B: 0.1% formic acid in acetonitrile.
Take 30 μL of the plasma sample prepared from item “2” , add 300 μL MeOH containing 100 ng/mL of internal standard to precipitate protein. The mixture was vortexed for 1 minute and centrifuged at 18000 g for 7 minutes. The supernatant was transferred to a 96-well plate. Inject 4 μL of supernatant into LC-MS/MS for analysis.
Pharmacokinetic parameters were calculated by using Phoenix WinNonlin7.0 software according to blood concentration data of different time points.

| SMILES | AUC [ng·h/mL] | Cmax [ng/mL] | clearance [mL/min/kg] |
| --- | --- | --- | --- |
| Cl.O=C(O)c1ccc2c(n1)CCNC2 [Example 1, 5,6,7,8-tetrahydro-1,6-naphthyridine-2-carboxylic acid hydrochloride] | 4110 | 10600 | 4 |
